Test results: PMC4318582, “Chemotherapy of Second Stage Human African Trypanosomiasis: Comparison between the Parenteral Diamidine DB829 and Its Oral Prodrug DB868 in Vervet Monkeys” (PLoS Neglected Tropical Diseases, 2015)
Several values for one entry are separate records, joined by “and”; a condition that tells them apart may be missing. Identical values can stand only once. Entries after “also recorded” stand apart in the source; their conditions may differ. Like-named read-outs stand apart in the source and are kept apart here.

Legend:
African trypanosomes = test system: African trypanosomes; set-up: method as in PMID 18722336, PMID 19620327; settings: oral administration; cited from earlier work
T. b. rhodesiense = settings: oral prodrug; cited from earlier work
[1] = test system: T. b. rhodesiense KETRI 2537; experiment: Efficacy in KETRI vervet monkey model of second stage HAT; format: in vivo
Source text: The current study used the KETRI vervet monkey model of HAT, a model developed over 30 years ago through the experimental infection of vervet monkeys with T. b. rhodesiense. […] Trypanosomes were identified in peripheral blood first and cerebrospinal fluid (CSF) second, allowing the disease to be classified into an early (haemo-lymphatic) and a late (central nervous system [CNS]) stage, similar to the human disease. […] Monkey trypanosomal infections have been determined to be invariably fatal without therapeutic intervention, a characteristic also widely accepted as true for human sleeping sickness.
Parasitaemia and CSF parasitosis were monitored using established techniques for blood trypanosomes and CSF trypanosomes, respectively.
Due to a regulated freeze on acquisitions of new non-human primates, only six monkeys were available for the IM DB829 study. These animals were divided into three treatment groups, each consisting of one male and one female, to compare dose-responsiveness between consecutive- and alternate-day dosing. Monkeys were treated with 2.5 or 5 mg/kg/day for 5 consecutive days or with 5 mg/kg/day on alternating days for a total of 5 doses (Table 1).
Twelve additional monkeys were available for the oral DB868 efficacy study. These animals were, before infection, divided into three groups, each consisting of two males and two females. DB868 was administered orally to each group at 3, 10 or 20 mg/kg/day for 10 consecutive days (Table 2).
Parasitaemia post-infection was monitored daily, using ear-prick capillary blood, through the completion of DB868 and DB829 treatment. […] At 300 days post-LDD, monkeys were considered cured if they remained normal clinically and parasite-free in the blood and CSF. Pharmacokinetic outcomes were monitored for a minimum of 60 days post-LDD as described previously. […] Monkeys that relapsed, characterized by trypanosome recrudescence in the blood or CSF, were rescue-treated with melarsoprol.

[2] = Plasma pharmacokinetics in infected vervet monkeys (HPLC-MS/MS); format: in vivo, vervet monkey; settings: for geometric mean plasma concentration (range) of prodrug DB868: within 1 h post-LDD
Source text: (§1) Parasitaemia post-infection was monitored daily, using ear-prick capillary blood, through the completion of DB868 and DB829 treatment. Following the last drug dose (LDD), blood and CSF samples were examined for trypanosomes at 1, 4, 7, and 14 days to determine the end of treatment (EoT) response; monkeys which were positive for trypanosomes in either blood or CSF at the end of this 14-day period were classified as treatment failures/not cured while those that were free of trypanosomes were classified as provisionally cured. After the 14-day EoT evaluations, parasitaemia examinations were continued twice weekly to ≥ 300 days post-LDD as described previously. Additionally, physical examinations and haematological assessments were carried out once weekly up to 28 days post-LDD, once every two weeks between 28 and 100 days post-LDD, and monthly thereafter until the end of the study as described previously. At 300 days post-LDD, monkeys were considered cured if they remained normal clinically and parasite-free in the blood and CSF. Pharmacokinetic outcomes were monitored for a minimum of 60 days post-LDD as described previously. To facilitate the collection of blood and CSF for these assessments, the monkeys were anaesthetised with an IM injection of ketamine HCl (10–15 mg/kg) and diazepam (0.5 mg/kg). Monkeys that relapsed, characterized by trypanosome recrudescence in the blood or CSF, were rescue-treated with melarsoprol. Melarsoprol (Mel B), supplied by the World Health Organization as a 3.6% (w/v) solution in propylene glycol, was administered intravenously at 3.6 mg/kg/day for 4 consecutive days.
Plasma samples were processed for quantification of DB868 and DB829 by high performance liquid chromatography-tandem mass spectrometry (HPLC-MS/MS) as described previously. CSF samples were processed in a manner similar to that of plasma samples.
Clinical and haematological data were analysed using Statview for Windows Version 5.0.1 (1995–1998; SAS Institute Inc., Cary, NC, USA). Repeated measures ANOVA, with Fisher’s PLSD post hoc test, was used to test the effect of trypanosome infection on haematologic parameters in comparison with respective baseline values (α = 0.05). In addition, the effects of IM DB829 and oral DB868 on these haematologic parameters in monkeys with confirmed second stage HAT were tested. Pharmacokinetic outcomes were recovered using traditional non-compartmental methods using Phoenix WinNonlin (version 6.2; Pharsight, Mountain View, CA, USA).

[3] = Tolerability of dose regimens in infected vervet monkeys; format: in vivo, vervet monkey; settings: all IM DB829 and oral DB868 dose regimens
Source text: as §1, with “Monkeys that relapsed, characterized by trypanosome recrudescence in the blood or CSF, were rescue-treated with melarsoprol. Melarsoprol (Mel B), supplied by the World Health Organization as a 3.6% (w/v) solution in propylene glycol, was administered intravenously at 3.6 mg/kg/day for 4 consecutive days.” left out

T. b. brucei GVR35 = test system: T. b. brucei GVR35; set-up: method as in PMID 19620327; settings: cited from earlier work
[4] = test system: T. b. rhodesiense KETRI 2537; settings: cited from earlier work
[5] = set-up: method as in earlier work; settings: cited from earlier work
[6] = test system: human intestinal cell line (Caco-2); set-up: method as in PMID 12458675, PMID 15294005; settings: cited from earlier work
[7] = all oral DB868 regimens combined
[8] = oral 10 mg/kg × 10 days, monkeys 688M, 690F, 695M, 697F, 10 mg/kg
[9] = oral 20 mg/kg × 10 days, monkeys 573F, 679F, 689M, 696M, 20 mg/kg

SMILES: CON=C(N)c1ccc(-c2ccc(-c3ccc(C(N)=NOC)cn3)o2)cc1 [DB844]
- efficacy in murine models of first and second stage HAT (African trypanosomes): fully curative
- cure rate against second stage HAT in non-human primates (T. b. rhodesiense): 3/7

SMILES: CONC(=N)c1ccc(-c2ccc(-c3ccc(C(=N)NOC)cn3)o2)nc1 [DB868, 2,5-bis[5-(N-methoxyamidino)-2-pyridyl]furan]
- Final efficacy assessment at 300 days post-LDD of DB868, Overall Results (combined cure rate) [1, 7]: 2/10
- Provisional efficacy at 100 days post-LDD of DB868, Overall Results [1, 7]: 4/10
- Provisional efficacy at EoT, Overall Results [1, 7]: 8/10
- Time to relapse ([1]; oral 3 mg/kg × 10 days, 28–37 DPI, monkey 687M): 14 days post-LDD
- Cured/treated ([1]; oral 3 mg/kg × 10 days, 3 mg/kg): did not cure any monkey and did not achieve cure in any monkey and 0/2
- Provisional efficacy at EoT ([1]; oral 3 mg/kg × 10 days, monkeys 670F, 687M): Not cured
- drug dose after which brief period of aparasitaemia started ([1]; oral 3 mg/kg/day × 10 days, 34 DPI): 7 drug dose
- Cured/treated ([1]; oral 10 mg/kg × 10 days): 1/4
- Time to initial clearance of trypanosomes from body fluids (blood and CSF) ([1]; oral 10 mg/kg × 10 days, 28–37 DPI): 1 days post-LDD
- Time to relapse ([1]; oral 10 mg/kg × 10 days, 28–37 DPI, individual monkeys, 10 mg/kg): 56 days post-LDD and 28 days post-LDD
- Provisional efficacy at EoT ([1]; oral 10 mg/kg × 10 days, monkeys 688M, 690F, 695M, 697F): Cured
- Final efficacy assessment at 300 days post-LDD of DB868 [1, 8]: R and Cured
- Provisional efficacy at 100 days post-LDD of DB868 [1, 8]: R and Cured
- median (range) time to relapse ([1]; oral 10 mg/kg/day × 10 days): 28 (28–56) days post-LDD
- monkeys relapsed ([1]; oral 10 mg/kg/day × 10 days): 3/4
- day of dosing by which monkeys became blood parasite negative ([1]; oral 10 mg/kg/day × 10 days, 34 DPI): ≤ 7 day of dosing
- Cured/treated ([1]; oral 20 mg/kg × 10 days): 1/4
- Time to relapse ([1]; oral 20 mg/kg × 10 days, 28–37 DPI, individual monkeys, 20 mg/kg): 161 days post-LDD and 133 days post-LDD and 77 days post-LDD
- Provisional efficacy at EoT ([1]; oral 20 mg/kg × 10 days, monkeys 573F, 679F, 689M, 696M): Cured
- Final efficacy assessment at 300 days post-LDD of DB868 [1, 9]: R and Cured
- Provisional efficacy at 100 days post-LDD of DB868 [1, 9]: R and Cured
- monkeys relapsed ([1]; oral 20 mg/kg/day × 10 days): 3/4
- median (range) time to relapse ([1]; oral 20 mg/kg/day × 10 days, 20 mg/kg/day): 133 (77–161) days post-LDD and 133 days post-LDD
- day of treatment by which monkeys became aparasitaemic (blood) ([1]; oral 20 mg/kg/day × 10 days, 34 DPI): ≤ 7 day of treatment
- decline of prodrug DB868 plasma concentrations ([2]; oral DB868, all monkeys, post-LDD): undetectable after 8 h
- geometric mean plasma concentration (range) of prodrug DB868 ([2]; oral DB868 3 mg/kg/day): 120 (100–150) nmol/L
- geometric mean plasma concentration (range) of prodrug DB868 ([2]; oral DB868 10 mg/kg/day): 750 (420–1500) nmol/L
- geometric mean plasma concentration (range) of prodrug DB868 ([2]; oral DB868 20 mg/kg/day): 810 (370–1300) nmol/L
- tolerability of dose regimens [3]: well tolerated
- efficacy in the murine model of second stage HAT (T. b. brucei GVR35): fully curative
- efficacy against first stage HAT in monkeys ([4]; oral): highly active; also recorded: fully curative
- tolerability in monkeys, first stage HAT study ([4]; oral): well-tolerated
- tolerability in rats [5]: better tolerated than pafuramidine

SMILES: Nc1nc(N)nc(Nc2ccc([As]3SCC(CO)S3)cc2)n1 (stereo not drawn) [melarsoprol, reference compound]
- rescue treatment of monkeys that relapsed after DB868 ([1]; melarsoprol intravenously 3.6 mg/kg/day for 4 consecutive days, 3.6 mg/kg/day): successfully rescue-treated and 5/6

SMILES: CONC(=N)c1ccc(-c2ccc(-c3ccc(C(=N)NOC)cc3)o2)cc1 [pafuramidine, 2,5-bis (4-amidinophenyl)-furan-bis-O-methlylamidoxime]
- efficacy in murine models of first and second stage HAT (African trypanosomes): fully curative
- efficacy against first stage HAT in monkeys ([4]; oral administration): fully curative
- cure rate against second stage HAT in non-human primates (T. b. rhodesiense): 0/3
- absorptive permeability compared with the active diamidine furamidine (DB75) [6]: improved absorptive permeability

SMILES: N=C(N)c1ccc(OCCCCCOc2ccc(C(=N)N)cc2)cc1 [pentamidine, reference compound]
- cure rate when treatment initiation was delayed to 14 days post-infection ([4]; IM, monkeys, T. b. rhodesiense KETRI 2537, ref unpublished data, TRC-KARI): 0/3
- cure rate in first stage disease ([4]; IM, monkeys): 2/3
